{"source": "paper PMC8807399", "about": "“Synthesis, Characterization, and in vivo Evaluation of a Novel Potent Autotaxin-Inhibitor” (Frontiers in Pharmacology, 2022)", "key": {"I/R model rats": {"system": "I/R model rats", "test": "Retinal ischemia/reperfusion (I/R) model", "type": "in vivo, rat", "details": "for ERG b-wave amplitude: I/R + ATX-i eyes vs control; for ERG a-wave amplitude: I/R + ATX-i group vs control", "protocol": "Diets containing compound 13 were manufactured by ssniff Spezialdiäten GmbH (Soest, Germany). Calculations of the daily doses were based on average food intake of rats used in the studies. The regular chow diet for the 60 mg/kg dose was calculated as 8.5 kg and mixed with a solution of 13 in ethanol (4.8%, w/w). The amount of 13 used was 1.0 g per kg of food. After mixing, ethanol was removed in vacuo until dryness. For the preparation of the 20 mg/kg dose, the same procedure was used by applying 0.333 g of 13 per kg of food.\nThe oral treatment with the ATX-inhibitor 13 (ATX-i; 20 mg/kg; Roche) started 7 days prior to immunization and 3 days prior I/R induction and continued throughout the study. The regular chow diet for the treatment groups was replaced with the same chow diet containing the treatment substance.\nAn established I/R model was used ([Schmid et al., 2014]; [Renner et al., 2017]). Therefore, rats were anesthetized with a ketamine/xylazine/vetranquil cocktail (0.65/0.65/0.2 ml). One eye per animal was dilated with 5% tropicamide (Pharma Stulln, Stulln, Germany) and anesthetized topically with conjuncain (Bausch and Lomb, Berlin, Germany). Additionally, a pain medication injection of metamizole (Novalgin; Zentiva, Frankfurt am Main, Germany) was administered subcutaneously. IOP was raised to 140 mmHg for 60 min by elevating a saline reservoir connected to a needle, which was placed into the anterior chamber of the eye. Retinal ischemia was confirmed by observing whitening of the retina via an ophthalmoscope (Mini 300; Heine Optotechnik, Herrsching, Germany). Reperfusion was later reassured by observing the returning blood flow. The contralateral eye was used as a control. Analyses were performed 7 and 14 days after ischemia induction.\nERG measurements were performed on all eyes 7 and 14 days after I/R induction as previously described ([Schmid et al., 2014]; [Palmhof et al., 2018]). Before performing the ERG under dim red light, rats were dark adapted overnight. The readings were done using a full-field flash electroretinograph (HMs ERG system, OcuScience, Henderson, NV, United States). After anesthesia with a ketamine/xylazine cocktail (100/4 mg/kg) eyes were dilated and topically anesthetized. Reference electrodes were placed subcutaneously below the right and left ear and a ground electrode was placed in the base of the tail. Silver thread recording electrodes were placed in the center of the cornea. Scotopic flash ERGs were recorded at 0.1, 0.3, 1, 3, 10, and 25 cd*s/m^2 for each eye (7 days: 5-6 eyes/group; 14 days: 6-7 eyes/group). Signals obtained from the corneal surface were then amplified, digitized, and averaged using ERG View 4.380R software (OcuScience).\nAfter explantation, eyes and optic nerves were fixed in 4% paraformaldehyde for 60 min (eyes) or 120 min (optic nerves) and then treated with 30% sucrose overnight. Afterwards, the retinas and optic nerves were embedded in NEG-50 Tissue-Tek medium (Thermo Fisher, Waltham, MA, United States). Cryo-cross sections of the eyes (10 µm) or longitudinal sections of the optic nerves (4 µm) were cut on a microtome (Thermo Fisher), mounted on Histobond Superfrost^+ slides (Thermo Fisher) and fixed in ice cold acetone for 10 min.\nRetinal cross-sections from the I/R studies were stained with hematoxylin and eosin (H&E) to visualize retinal layers and changes in the thickness of the layers using standard protocols (7 days: 5-6 retinas/group; 14 days: 6-7 retinas/group). The thickness of the ganglion cell layer (GCL) was analyzed with the measuring tool of the ZEN2012 image analysis software (Zeiss, Oberkochen, Germany). Therefore, they were measured three times and the value was averaged ([Palmhof et al., 2019]).\nLongitudinal optic nerve sections (EAG: 5-6 nerves/group, I/R 14 days: 6-7 nerves/group) were stained with H&E and luxol fast blue (LFB). […]"}, "Somatostatin receptor 4": {"biological_target": "T1, Somatostatin receptor 4 (Homo sapiens, UniProt P31391)", "T1 construct": "purchased Eurofins CEREP SA", "T1 sequence (P31391 whole entry)": "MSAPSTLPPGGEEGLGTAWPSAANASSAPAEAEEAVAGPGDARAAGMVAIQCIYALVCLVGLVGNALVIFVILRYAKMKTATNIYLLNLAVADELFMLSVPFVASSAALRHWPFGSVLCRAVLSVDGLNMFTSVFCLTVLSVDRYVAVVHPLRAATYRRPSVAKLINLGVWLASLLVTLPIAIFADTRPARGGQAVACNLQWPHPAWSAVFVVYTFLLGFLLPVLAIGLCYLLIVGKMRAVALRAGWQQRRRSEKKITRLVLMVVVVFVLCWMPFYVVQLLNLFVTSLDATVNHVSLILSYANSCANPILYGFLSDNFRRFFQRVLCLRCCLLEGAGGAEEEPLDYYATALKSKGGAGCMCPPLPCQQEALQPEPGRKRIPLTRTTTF", "test": "Off-target screen Somatostatin receptor 4", "type": "binding", "details": "10 µM; single point, duplicates"}, "[1]": {"test": "Artificial membrane permeability assay", "type": "in vitro ADME", "details": "PAMPA, read-out: Permeability Pe", "protocol": "The assay was performed in an automated fashion on 96-well microplates. The permeation of drugs was measured using a “sandwich” construction: A filter-plate was coated with phospholipids (membrane) and placed into a donor compartment containing a compound/buffer solution. Finally, the top of filter-plate was filled with buffer solution (acceptor). Donor concentration was measured at t-start (reference) and compared with the donor and acceptor concentration after a certain time (t-end) to calculate the extent of passage of the compound through the membrane. The main readout of the assay was the permeability value Pe expressed in 10^–6 * cm/s. Secondary readouts determined were the amount of compound in the donor and acceptor compartments as well as the retention in the membrane. Depending on the permeation rate and the membrane retention the compounds were classified as low (Pe < 0.2 and membrane < 20%) or medium and high (Pe ≥ 0.2 or Pe < 0.2 and membrane ≥ 20%). Each sample was measured in triplicate and a standard deviation was determined for the permeation constant Pe."}, "HIV-1 protease": {"system": "HIV-1 protease", "test": "Off-target screen HIV-1 protease", "details": "10 µM; single point, duplicates"}, "[2]": {"test": "In vitro microsomal stability, mouse", "type": "in vitro ADME", "details": "mouse microsomes, 1 µM; value of 10 = low clearance, essentially below detection limit", "protocol": "Incubations of a test compound at a concentration of 1 µM with microsomes (0.5 mg/ml) from the appropriate species (human, mouse, or rat) plus cofactor NADPH were performed in 96-well plates at 37°C on a TECAN automated liquid handling system (Tecan Group Ltd., Männedorf, Switzerland). After pre-incubation of the test compound with the microsomes for 10 min, the enzymatic reaction was started by the addition of cofactors. Aliquots of the incubations are removed at 1, 3, 6, 9, 15, 25, 35, and 45 min and are then quenched with 1:3 (v/v) acetonitrile containing internal standards. Samples were then cooled and centrifuged before analysis of the supernatant by LC-MS/MS. Logarithmic Peak area ratios (test compound peak area/internal standard peak area) were plotted against incubation time and a linear fit made to the data with emphasis upon the initial rate of compound disappearance. The slope of the fit was then used to calculate the intrinsic clearance: Clint (µL/min/mg protein) = −slope (min-1) * 1,000/[protein concentration (mg/ml)]."}}}
{"smiles": "O=C(OCc1ccc(OC(F)(F)F)cc1)N1C[C@@H]2CN(C(=O)c3ccc4[nH]nnc4c3)C[C@H]2C1", "note": "[Compound 13, (3aS,6aS)-5-(1H-Benzotriazole-5-carbonyl)-hexahydro-pyrrolo[3,4-c]pyrrole-2-carboxylic acid 4-trifluoromethoxy-benzyl ester]", "values": [{"measurement": "ERG b-wave amplitude", "setting": "I/R model rats; 7 days (p < 0.001)", "value": "significantly lower"}, {"measurement": "ERG b-wave amplitude", "setting": "I/R model rats; 14 days (p < 0.001)", "value": "significantly declined"}, {"measurement": "ERG a-wave amplitude", "setting": "I/R model rats; 7 days, all light intensities (p < 0.050)", "value": "significant decrease"}, {"measurement": "ERG a-wave amplitude", "setting": "I/R model rats; 14 days, all light intensities (p > 0.050), vs I/R increased at 0.1 cd s/m^2 (p = 0.027)", "value": "comparable to the control ones"}, {"measurement": "GCL thickness", "setting": "I/R model rats; I/R + ATX-i group, 20 mg/kg food admix, 7 days, I/R 4.03 ± 0.84, control 6.28 ± 1.57", "value": "4.34 ± 1.63", "unit": "µm"}, {"measurement": "β-III tubulin protein level (Western Blot), retina", "setting": "I/R model rats; I/R + ATX-i group, 7 days, I/R 0.18 ± 0.17, control 1.39 ± 0.52", "value": "0.28 ± 0.30"}, {"measurement": "Iba1 protein level (Western Blot), retina", "setting": "I/R model rats; I/R + ATX-i group, 7 days, I/R 0.61 ± 0.05, control 0.47 ± 0.11", "value": "0.50 ± 0.21"}, {"measurement": "GFAP+ area, retina", "setting": "I/R model rats; I/R + ATX-i group, 7 days, I/R 3.44 ± 1.52, control 2.46 ± 1.41", "value": "2.98 ± 1.13 area [%]/section"}, {"measurement": "GFAP protein level (Western Blot), retina", "setting": "I/R model rats; I/R + ATX-i group, 7 days, I/R 4.00 ± 1.95, control 0.71 ± 0.33", "value": "3.90 ± 1.14"}, {"measurement": "Cleaved caspase 3+ apoptotic RGCs", "setting": "I/R model rats; I/R + ATX-i group, 7 days, I/R 5.97 ± 1.93, control 2.62 ± 1.59", "value": "6.21 ± 1.62", "unit": "cells/mm"}, {"measurement": "Brn-3a+ RGC number, retina", "setting": "I/R model rats; I/R + ATX-i group, 7 days, I/R 10.95 ± 2.48, control 48.29 ± 3.94, p = 0.008 vs I/R", "value": "17.61 ± 1.63", "unit": "cells/mm"}, {"measurement": "ED1+ and Iba1+ co-labeled cells, retina", "setting": "I/R model rats; I/R + ATX-i group, 7 days, I/R 34.74 ± 6.57, control 0.81 ± 0.91, p = 0.045 vs I/R", "value": "26.91 ± 4.48", "unit": "cells/mm"}, {"measurement": "Iba1+ microglia, retina", "setting": "I/R model rats; I/R + ATX-i group, 7 days, I/R 38.44 ± 7.75, control 5.65 ± 2.29, p = 0.045 vs I/R", "value": "29.04 ± 5.19", "unit": "cells/mm"}, {"measurement": "β-III tubulin protein level (Western Blot), retina", "setting": "I/R model rats; I/R + ATX-i group, 14 days, I/R 0.06 ± 0.03, control 0.60 ± 0.08", "value": "0.13 ± 0.08"}, {"measurement": "Iba1 protein level (Western Blot), retina", "setting": "I/R model rats; I/R + ATX-i group, 14 days, I/R 0.95 ± 0.54, control 0.28 ± 0.19", "value": "0.69 ± 0.44"}, {"measurement": "GFAP protein level (Western Blot), retina", "setting": "I/R model rats; I/R + ATX-i group, 14 days, I/R 1.60 ± 0.19, control 0.19 ± 0.06", "value": "1.31 ± 0.66"}, {"measurement": "GCL thickness", "setting": "I/R model rats; I/R + ATX-i group, 14 days, I/R 2.76 ± 0.16, control 5.28 ± 0.43, p = 0.003 vs I/R", "value": "3.54 ± 0.34", "unit": "µm"}, {"measurement": "Activated microglia (ED1+ and Iba1+), optic nerve", "setting": "I/R model rats; I/R + ATX-i group, 14 days, I/R 5.28 ± 0.76, control 0.06 ± 0.06", "value": "5.71 ± 1.04", "unit": "cells/image"}, {"measurement": "Cleaved caspase 3+ cells", "setting": "I/R model rats; I/R + ATX-i group, 14 days, I/R 5.38 ± 0.83, control 2.58 ± 0.72", "value": "5.02 ± 1.52", "unit": "cells/mm"}, {"measurement": "Iba1+ cells, optic nerve", "setting": "I/R model rats; I/R + ATX-i group, 14 days, I/R 5.65 ± 0.75, control 2.74 ± 1.06", "value": "6.10 ± 1.09", "unit": "cells/image"}, {"measurement": "Brn-3a+ RGC number, retina", "setting": "I/R model rats; I/R + ATX-i group, 14 days, I/R 5.81 ± 2.85, control 56.32 ± 11.74, p = 0.017 vs I/R", "value": "21.62 ± 8.84", "unit": "cells/mm"}, {"measurement": "GFAP+ area, retina", "setting": "I/R model rats; I/R + ATX-i group, 14 days, I/R 7.02 ± 2.71, control 3.35 ± 0.98", "value": "5.01 ± 1.70 area [%]/section"}, {"measurement": "ED1+ and Iba1+ activated microglia, retina", "setting": "I/R model rats; I/R + ATX-i group, 14 days, I/R 34.20 ± 9.12, control 2.99 ± 1.26", "value": "28.27 ± 7.63", "unit": "cells/mm"}, {"measurement": "Iba1+ microglia, retina", "setting": "I/R model rats; I/R + ATX-i group, 14 days, I/R 45.5 ± 11.78, control 26.28 ± 3.33", "value": "41.17 ± 9.33", "unit": "cells/mm"}, {"measurement": "GFAP score, optic nerve", "setting": "I/R model rats; I/R + ATX-i group, 14 days, score 0-2, I/R 1.13 ± 0.13, control 0.89 ± 0.30", "value": "1.23 ± 0.25"}, {"measurement": "Optic nerve LFB score", "setting": "I/R model rats; I/R + ATX-i group, 14 days, score 0-2, I/R 1.19 ± 0.25, control 0.54 ± 0.42", "value": "1.09 ± 0.17"}, {"measurement": "Optic nerve SMI-32 score", "setting": "I/R model rats; I/R + ATX-i group, 14 days, score 0-2, I/R 1.27 ± 0.31, control 0.47 ± 0.27", "value": "1.05 ± 0.21"}, {"measurement": "Optic nerve H&E score", "setting": "I/R model rats; I/R + ATX-i group, 14 days, score 0-4, I/R 2.43 ± 0.37, control 0.77 ± 0.27", "value": "2.25 ± 0.44"}, {"measurement": "Somatostatin receptor 4 (h) [% inhib]", "setting": "Somatostatin receptor 4", "value": 12, "unit": "% inhib"}, {"measurement": "Papp", "setting": "[1]", "value": 4.5, "unit": "×10⁻⁶ cm/s"}, {"measurement": "HIV-1 protease (h) [% inhib]", "setting": "HIV-1 protease", "value": 0, "unit": "% inhib"}, {"measurement": "Mic CL m", "setting": "[2]", "value": "10/10/10 µL/m/mg prot"}]}
